Experimental data from PMC11507441, “Oilseed Cakes: A Promising Source of Antioxidant, and Anti-Inflammatory Agents—Insights from Lactuca sativa” (International Journal of Molecular Sciences, 2024).

Legend:
TNF-α = TNF-α in rat paw tissue homogenate (carrageenan model); format: in vivo; conditions: doses of 20 and 40 mg/kg; compared to the vehicle control group
Description: (§1) The levels of inflammatory mediators (IL-1β, TNF-α, and PGE2) in rat paw tissue homogenate were measured using the following Kits: Rat TNF-α (Tumor Necrosis Factor Alpha) ELISA Kit from Elabscience® Company, Houston, TX, USA, Interleukin 1 Beta (IL-1b) Organism Species: Rattus norvegicus (Rat) from Cloud Clone Crop Company and Rat PGE2 (Prostaglandin E2) ELISA Kit from Fine test® company Hubei, China. In addition, oxidative stress parameters in rat paw tissue homogenate were measured using superoxide dismutase, glutathione peroxidase, and catalase Kits from the Biodiagnostic company, Birmingham, UK.
(§2) Rats were slaughtered, and their paw tissues were gathered and weighed five hours after the carrageenan was administered. The tissues underwent processing after being fixed in 10% formalin. Rat paw tissue was homogenized, and its oxidative stress indices (SOD, CAT, and GPx) as well as the levels of inflammatory mediators (IL-1β, TNF-α, and PGE2) were measured.

GPx = GPx activity in rat paw tissue homogenate (carrageenan model); format: in vivo; conditions: for GPx (U/gm Tissue): paw tissue 5 h after carrageenan
Description: as §1, §2

[1] = tested on: SARS-CoV-2 main protease Mpro or 3CLpro; conditions: cited from earlier work
[2] = tested on: carrageenan-induced paw oedema; assay: Carrageenan-induced paw oedema; format: in vivo; conditions: rat
Description: Adult albino rats 180-220 g of both sexes used in the investigation were acquired from the Mansoura University Faculty of Pharmacy's Animal House. Standard laboratory diet and water were provided, and they were housed in cages maintained at a constant temperature of 22 ± 2 °C. The Animal Care and Use Committee (MU-ACUC) of Mansoura University, Egypt, has approved all procedures involving animals with code number: […] Throughout the experiment, medications and extracts were given orally in doses of 1 mL/100 g of the rat's body weight after being solubilized in carboxymethyl cellulose (CMC) in order to create a suspension formula. In this test, rats were divided into six groups, with each group containing 5 animals. Group-1: […] Group-2: Positive control (carrageenan-induced oedema, Sigma (St. Louis, MO, USA)) without any treatment. […] Group-4: […] extract of Lactuca sativa was administered at a 2 g/kg dose. Group-5: Compound (1) is administered at a dose of 20 mg/kg. Group-6: Compound (1) at a dose of 40 mg/kg. Group-7: Combination of standard and compound (1) at doses of (10 + 20) mg/kg, respectively. […] Using a digital vernier calliper, the swelling of the paw that had been injected with carrageenan was measured prior to injection as well as 1, 2, 3, 4, and 5 h following the treatment's induction. The percentage inhibition of oedema in the test animals treated with the extract compared to the carrageenan control group was used to calculate the anti-inflammatory activity. The formula […] was used to calculate the percentage inhibition of inflammation, where “dt” represents the difference in paw volume in the drug-treated group and “dc” represents the difference in paw volume relative to the control group. Moreover, “I” represents the suppression of inflammation.

dermal inflammation = assay: Histopathological assessment of paw skin tissue (carrageenan model); format: in vivo, rat; conditions: 5 h after carrageenan
Text: Five hours following the carrageenan injection, tissue specimen samples from the paw skin tissue of every group under study were removed for histological examination. Prior to being submerged in paraffin blocks, they were fixed in a 10% formalin solution and stained with hematoxylin-eosin. Using a microtome, paraffin sections with a thickness of 5 µm were cut, and hematoxylin and eosin were frequently applied to the sections. Microscopically, these tissue slices were inspected. Consequently, the sections were examined under a light microscope; on the other hand, photos taken with a digital camera (Canon Power-shot D10) recorded the progression of paw oedema.

SOD = SOD activity in rat paw tissue homogenate (carrageenan model); format: in vivo; conditions: for SOD (U/gm Tissue): paw tissue 5 h after carrageenan
Description: as §1, §2

[3] = 40 mg/kg, compared to the control group

NC(CO)C(O)c1ccc2c(c1)OCO2 (stereo not drawn) [Compound 1, 1,3-propanediol-2-amino-1-(3′,4′-methylenedioxyphenyl)]
TNF-α level in paw tissue (TNF-α): significant reduction
GPx activity restored (GPx; [3]): 73.17%
GPx (U/gm Tissue) (GPx; 20 mg/kg): 77.65 ± 3.18 U/gm Tissue
GPx (U/gm Tissue) (GPx; 40 mg/kg): 86.75 ± 6.01 U/gm Tissue
inhibitory activity against SARS-CoV-2 main protease [1]: moderate inhibitory activities
% Inhibition (%I) of paw oedema ([2]; 1 h, dose 20 mg/kg oral): 10.25%
Increase in Paw Oedema ([2]; 1 h, dose 20 mg/kg oral): 1.05 ± 0.20 mL
% Inhibition (%I) of paw oedema ([2]; 1 h, dose 40 mg/kg oral): 16.32%
Increase in Paw Oedema ([2]; 1 h, dose 40 mg/kg oral): 0.77 ± 0.28 mL
% Inhibition (%I) of paw oedema ([2]; 2 h, dose 20 mg/kg oral): 23.51%
Increase in Paw Oedema ([2]; 2 h, dose 20 mg/kg oral): 1.81 ± 0.44 mL
% Inhibition (%I) of paw oedema ([2]; 2 h, dose 40 mg/kg oral): 27.07%
Increase in Paw Oedema ([2]; 2 h, dose 40 mg/kg oral): 1.59 ± 0.22 mL
% Inhibition (%I) of paw oedema ([2]; 3 h, dose 20 mg/kg oral): 23.77%
Increase in Paw Oedema ([2]; 3 h, dose 20 mg/kg oral): 2.26 ± 0.28 mL
% Inhibition (%I) of paw oedema ([2]; 3 h, dose 40 mg/kg oral): 26.1%
Increase in Paw Oedema ([2]; 3 h, dose 40 mg/kg oral): 2.11 ± 0.29 mL
% Inhibition (%I) of paw oedema ([2]; 4 h, dose 20 mg/kg oral): 45.36%
Increase in Paw Oedema ([2]; 4 h, dose 20 mg/kg oral): 2.18 ± 0.74 mL
% Inhibition (%I) of paw oedema ([2]; 4 h, dose 40 mg/kg oral): 55.39%
Increase in Paw Oedema ([2]; 4 h, dose 40 mg/kg oral): 1.78 ± 0.45 mL
% Inhibition (%I) of paw oedema ([2]; 5 h, dose 20 mg/kg oral): 57.63%
Increase in Paw Oedema ([2]; 5 h, dose 20 mg/kg oral): 1.75 ± 0.46 mL
% Inhibition (%I) of paw oedema ([2]; 5 h, dose 40 mg/kg oral): 63.92%
Increase in Paw Oedema ([2]; 5 h, dose 40 mg/kg oral): 1.49 ± 0.49 mL
Histopathology of paw skin (H&E) (dermal inflammation; Group 6, 40 mg/kg): substantial reduction in dermal inflammation
Histopathology of paw skin (H&E) (dermal inflammation; oral 20 mg/kg): moderate decrease in both inflammation and leukocyte infiltration
SOD activity restored (SOD; [3]): 71.43%
SOD (U/gm Tissue) (SOD; 20 mg/kg): 118.35 ± 1.06 U/gm Tissue
SOD (U/gm Tissue) (SOD; 40 mg/kg): 135.05 ± 11.67 U/gm Tissue
